# Key:
# Assay in all cases: relative viability (nuclei count vs DMSO), 5 days (fraction); higher = more cells survive
# Pazopanib + Foretinib = compound: Cc1ccc(Nc2nccc(N(C)c3ccc4c(C)n(C)nc4c3)n2)cc1S(N)(=O)=O [Pazopanib] + COc1cc2c(Oc3ccc(NC(=O)C4(C(=O)Nc5ccc(F)cc5)CC4)cc3F)ccnc2cc1OCCCN1CCOCC1 [Foretinib] (partner 0.25 µM)
# In short: (§1)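 Nuclei were stained with Hoechst during a one-step fixation (final 0.05% Triton X-100, 1% formaldehyde, 1 ug/ml Hoechst) carried out 5 days after dosing, then counted on 4× images. The cells, lung cancer lines in 1536-well plates, had been dosed by pin tool the day after seeding with one drug alone or a fixed anchor-drug dose plus five library-drug doses (not always all listed) in √10 steps. Relative viability is the nuclei count in treated wells divided by that in vehicle wells, and each value is the median of duplicate plates.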
# Ponatinib + Pictilisib = compound: Cc1ccc(C(=O)Nc2ccc(CN3CCN(C)CC3)c(C(F)(F)F)c2)cc1C#Cc1cnc2cccnn12 [Ponatinib] + CS(=O)(=O)N1CCN(Cc2cc3nc(-c4cccc5[nH]ncc45)nc(N4CCOCC4)c3s2)CC1 [Pictilisib] (partner 1 µM)
# In short: as §1
# Pazopanib + Olaparib = compound: Cc1ccc(Nc2nccc(N(C)c3ccc4c(C)n(C)nc4c3)n2)cc1S(N)(=O)=O [Pazopanib] + O=C(c1cc(Cc2n[nH]c(=O)c3ccccc23)ccc1F)N1CCN(C(=O)C2CC2)CC1 [Olaparib] (partner 8 µM)
# In short: as §1
# Ponatinib + Trametinib = compound: Cc1ccc(C(=O)Nc2ccc(CN3CCN(C)CC3)c(C(F)(F)F)c2)cc1C#Cc1cnc2cccnn12 [Ponatinib] + CC(=O)Nc1cccc(-n2c(=O)n(C3CC3)c(=O)c3c(Nc4ccc(I)cc4F)n(C)c(=O)c(C)c32)c1 [Trametinib] (partner 0.02 µM)
# In short: as §1
cell line,measurement,setting,value
UMC-11,relative viability,Pazopanib + Foretinib; first compound 0.01 µM,0.958
same,relative viability,Pazopanib + Foretinib; first compound 0.03162 µM,1.16
same,relative viability,Pazopanib + Foretinib; first compound 0.1 µM,1.19
same,relative viability,Pazopanib + Foretinib; first compound 0.3162 µM,1.07
same,relative viability,Pazopanib + Foretinib; first compound 1 µM,1.13
same,relative viability,Ponatinib + Pictilisib; first compound 0.002 µM,0.809
same,relative viability,Ponatinib + Pictilisib; first compound 0.006325 µM,0.933
same,relative viability,Ponatinib + Pictilisib; first compound 0.06325 µM,0.766
same,relative viability,Ponatinib + Pictilisib; first compound 0.2 µM,0.831
same,relative viability,Pazopanib + Olaparib; first compound 0.01 µM,0.425
same,relative viability,Pazopanib + Olaparib; first compound 0.03162 µM,0.359
same,relative viability,Pazopanib + Olaparib; first compound 0.1 µM,0.41
same,relative viability,Pazopanib + Olaparib; first compound 0.3162 µM,0.509
same,relative viability,Pazopanib + Olaparib; first compound 1 µM,0.34
same,relative viability,Ponatinib + Trametinib; first compound 0.002 µM,0.648
same,relative viability,Ponatinib + Trametinib; first compound 0.006325 µM,0.638
same,relative viability,Ponatinib + Trametinib; first compound 0.06325 µM,0.822
same,relative viability,Ponatinib + Trametinib; first compound 0.2 µM,0.709

# — the supplement of paper PMC10307832
